Data from US7001907B2, “Peptide-containing α-ketoamide cysteine and serine protease inhibitors” (Cephaon, Inc., priority 1997, dated 2006).

These compounds were tested against T1, Recombinant human calpain I (Homo sapiens, UniProt P07384) (assay: Inhibition of cysteine protease activity: calpain I, Succ-Leu-Tyr-MNA substrate hydrolysis). Conditions: Table 2, linear α-ketoamides.
T1 construct: made in house
T1 sequence (P07384 1-714): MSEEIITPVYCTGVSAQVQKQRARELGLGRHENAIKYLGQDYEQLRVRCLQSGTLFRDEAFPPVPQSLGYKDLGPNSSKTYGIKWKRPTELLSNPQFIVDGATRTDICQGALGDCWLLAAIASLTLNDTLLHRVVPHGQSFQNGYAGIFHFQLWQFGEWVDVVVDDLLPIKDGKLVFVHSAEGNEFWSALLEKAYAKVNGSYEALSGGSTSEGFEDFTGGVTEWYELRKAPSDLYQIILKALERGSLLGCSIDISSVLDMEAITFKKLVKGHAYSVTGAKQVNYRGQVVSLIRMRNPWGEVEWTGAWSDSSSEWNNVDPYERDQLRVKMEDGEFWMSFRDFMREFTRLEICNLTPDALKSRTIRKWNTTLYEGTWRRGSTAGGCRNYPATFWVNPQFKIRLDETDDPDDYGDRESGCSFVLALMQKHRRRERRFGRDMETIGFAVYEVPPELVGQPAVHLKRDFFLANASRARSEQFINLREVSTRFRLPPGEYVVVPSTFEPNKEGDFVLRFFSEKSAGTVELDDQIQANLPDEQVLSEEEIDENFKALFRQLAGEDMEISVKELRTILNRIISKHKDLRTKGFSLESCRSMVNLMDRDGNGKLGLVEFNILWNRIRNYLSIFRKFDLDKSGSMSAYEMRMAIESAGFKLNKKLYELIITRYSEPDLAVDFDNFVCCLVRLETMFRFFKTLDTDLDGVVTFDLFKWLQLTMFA
T1 sequence (P04632 1-268 partner): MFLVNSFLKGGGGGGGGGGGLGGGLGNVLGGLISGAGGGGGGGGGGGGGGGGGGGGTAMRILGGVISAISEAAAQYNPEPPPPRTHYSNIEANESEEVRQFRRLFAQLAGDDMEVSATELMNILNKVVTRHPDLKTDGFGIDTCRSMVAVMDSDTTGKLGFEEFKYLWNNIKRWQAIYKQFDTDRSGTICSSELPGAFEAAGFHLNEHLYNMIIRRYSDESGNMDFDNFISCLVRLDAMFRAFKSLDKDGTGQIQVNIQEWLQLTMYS
Format: biochemical
Method: To evaluate inhibitory activity, stock solutions (40 times concentrated) of each compound to be tested were prepared in 100% anhydrous DMSO and 5 μl of each inhibitor preparation were aliquoted into each of three wells of a 96-well plate. Recombinant human calpain I, prepared by the method of Meyer et al. (Biochem. J. 1996, 314: 511–519; incorporated herein by reference in its entirety), was diluted into assay buffer (i.e., 50 mM Tris, 50 mM NaCl, 1 mM EDTA, 1 mM EGTA, and 5 mM β-mercaptoethanol, pH 7.5, including 0.2 mM Succ-Leu-Tyr-MNA), and 175 μl was aliquoted into the same wells containing the independent inhibitor stocks as well as to positive control wells containing 5 μl DMSO, but no compound. To start the reaction, 20 μl of 50 mM CaCl2 in assay buffer was added to all wells of the plate, excepting three, which were used as background signal baseline controls. Substrate hydrolysis was monitored every 5 minutes for a total of 30 minutes. Substrate hydrolysis in the absence of inhibitor was linear for up to 15 minutes.
Inhibition of calpain I activity was calculated as the percent decrease in the rate of substrate hydrolysis in the presence of inhibitor relative to the rate in its absence. Comparison between the inhibited and control rates was made within the linear range for substrate hydrolysis. The IC50s of inhibitors (concentration yielding 50% inhibition) were determined from the percent decrease in rates of substrate hydrolysis in the presence of five to seven different concentrations of the test compound. The results were plotted as percent inhibition versus log inhibitor concentration, and the IC50 was calculated by fitting the data to the four-parameter logistic equation shown below using the program GraphPad Prism (GraphPad Software, Inc., San Diego, Calif.). y=d+[(a−d)/(1+(x/c)^b)]
The parameters a, b, c, and d are defined as follows: a is % inhibition in the absence of inhibitor, b is the slope, c is the IC50, and d is the % inhibition at an infinite concentration of inhibitor.
Compound `CS(=O)(=O)N[C@H](COCc1ccccc1)C(=O)N[C@@H](Cc1ccccc1)C(=O)C(=O)NCCNS(=O)(=O)c1ccc(-c2ccon2)s1` [Compound 32] has an IC50 of 0.01 µM. `Cn1nc(-c2ccc(S(=O)(=O)NCCNC(=O)C(=O)C(Cc3ccccc3)NC(=O)C(COCc3ccccc3)NS(C)(=O)=O)s2)cc1C(F)(F)F` (mixture of isomers) [Compound 34] showed an IC50 of 0.025 µM. `CS(=O)(=O)N[C@H](COCc1ccccc1)C(=O)N[C@@H](Cc1ccccc1)C(=O)C(=O)NCCNS(=O)(=O)c1ccc(-c2ccc(N)cc2)cc1` [Compound 40] showed an IC50 of 0.063 µM. `CS(=O)(=O)NC(COCc1ccccc1)C(=O)NC(Cc1ccccc1)C(=O)C(=O)NCCNS(=O)(=O)c1ccc(-c2ccccc2)s1` (mixture of isomers) [Compound 42] gave an IC50 of 0.014 µM. `CS(=O)(=O)N[C@H](COCc1ccccc1)C(=O)N[C@@H](Cc1ccccc1)C(=O)C(=O)NCCNS(=O)(=O)c1ccc(-c2ccccc2)s1` [Compound 29] showed an IC50 of 0.014 µM. `CS(=O)(=O)NC(COCc1ccccc1)C(=O)NC(Cc1ccccc1)C(=O)C(=O)NCCNS(=O)(=O)c1ccc(-c2cccc(N)c2)s1` (mixture of isomers) [Compound 44] was tested, and the IC50 was 0.031 µM. For `CS(=O)(=O)N[C@H](COCc1ccccc1)C(=O)N[C@@H](Cc1ccccc1)C(=O)C(=O)NCCNS(=O)(=O)c1ccc(Br)s1` [Compound 39], the IC50 was 0.022 µM. With `CS(=O)(=O)N[C@H](COCc1ccccc1)C(=O)N[C@@H](Cc1ccccc1)C(=O)C(=O)NCCNS(=O)(=O)c1ccccc1` [Compound 9] the IC50 was 0.016 µM. For `CS(=O)(=O)N[C@H](COCc1ccccc1)C(=O)N[C@@H](Cc1ccccc1)C(=O)C(=O)NCCNS(=O)(=O)c1cccnc1` [Compound 31], the IC50 was 0.029 µM.

Same assay, conditions: Table 4, α-ketoamides
With `CS(=O)(=O)NC(COCc1ccccc1)C(=O)NC(Cc1ccccc1)C(=O)C(=O)NCCNS(=O)(=O)c1ccc(-c2cccc(F)c2)s1` (mixture of isomers) [Compound 72] the IC50 was 0.018 µM. `CS(=O)(=O)N[C@H](COCc1ccccc1)C(=O)N[C@@H](Cc1ccccc1)C(=O)C(=O)NCCNS(=O)(=O)c1cccc(-c2csc(N)n2)c1` [Compound 51] gave an IC50 of 0.029 µM. `CS(=O)(=O)NC(COCc1ccccc1)C(=O)NC(Cc1ccccc1)C(=O)C(=O)NCCCCCNS(=O)(=O)c1ccc(-c2ccccn2)s1` (mixture of isomers) [Compound 92] showed an IC50 of 0.012 µM. In the case of `CS(=O)(=O)N[C@H](COCc1ccccc1)C(=O)N[C@@H](Cc1ccccc1)C(=O)C(=O)NCCNS(=O)(=O)c1ccc(-c2cccc(C#N)c2)s1` [Compound 104], the IC50 is reported as 0.01 µM. `CS(=O)(=O)N[C@H](COCc1ccccc1)C(=O)N[C@@H](Cc1ccccc1)C(=O)C(=O)NCCNS(=O)(=O)c1ccc(-c2cccc(C=O)c2)s1` [Compound 52] gave an IC50 of 0.005 µM. `CS(=O)(=O)N[C@H](COCc1ccccc1)C(=O)N[C@@H](Cc1ccccc1)C(=O)C(=O)NCCNS(=O)(=O)c1ccc(-c2cccc(CN3CCSCC3)c2)s1` [Compound 114] gave an IC50 of 0.033 µM. `CS(=O)(=O)NC(COCc1ccccc1)C(=O)NC(Cc1ccccc1)C(=O)C(=O)NCCNS(=O)(=O)c1ccc(CN2CC=CC2)cc1` (mixture of isomers) [Compound 111] was tested, and the IC50 was 0.073 µM. With `CC(=O)Nc1nc(C)c(S(=O)(=O)NCCNC(=O)C(=O)[C@H](Cc2ccccc2)NC(=O)[C@@H](COCc2ccccc2)NS(C)(=O)=O)s1` [Compound 96] the IC50 was 0.023 µM. `CS(=O)(=O)N[C@H](COCc1ccccc1)C(=O)N[C@@H](Cc1ccccc1)C(=O)C(=O)NCCNS(=O)(=O)c1ccc(-c2ccc(CN3CCOCC3)cc2)s1` [Compound 94] gave an IC50 of 0.022 µM. With `CC(=O)c1cccc(-c2ccc(S(=O)(=O)NCCNC(=O)C(=O)C(Cc3ccccc3)NC(=O)C(COCc3ccccc3)NS(C)(=O)=O)s2)c1` (mixture of isomers) [Compound 77] the IC50 was 0.01 µM. For `CN1CCN(Cc2cccc(-c3ccc(S(=O)(=O)NCCNC(=O)C(=O)[C@H](Cc4ccccc4)NC(=O)[C@@H](COCc4ccccc4)NS(C)(=O)=O)s3)c2)CC1` [Compound 58], the IC50 was 0.021 µM. Work on `Cc1cccc(-c2ccc(S(=O)(=O)NCCNC(=O)C(=O)C(Cc3ccccc3)NC(=O)C(COCc3ccccc3)NS(C)(=O)=O)s2)c1` (mixture of isomers) [Compound 75] yielded an IC50 of 0.036 µM. `CS(=O)(=O)N[C@H](COCc1ccccc1)C(=O)N[C@@H](Cc1ccccc1)C(=O)C(=O)NCCNS(=O)(=O)c1ccc(-c2ccccc2CN2CCOCC2)s1` [Compound 93] showed an IC50 of 0.04 µM. For `CS(=O)(=O)N[C@H](COCc1ccccc1)C(=O)N[C@@H](Cc1ccccc1)C(=O)C(=O)NCCNS(=O)(=O)c1cc2ccccc2s1` [Compound 87], the IC50 was 0.023 µM. Compound `CN(CCNC(=O)C(=O)[C@H](Cc1ccccc1)NC(=O)[C@@H](COCc1ccccc1)NS(C)(=O)=O)S(=O)(=O)c1ccc(-c2cccc(C=O)c2)s1` [Compound 65] has an IC50 of 0.019 µM. `COc1ccc(-c2ccc(S(=O)(=O)NCCNC(=O)C(=O)C(Cc3ccccc3)NC(=O)C(COCc3ccccc3)NS(C)(=O)=O)s2)cc1` (mixture of isomers) [Compound 82] showed an IC50 of 0.013 µM. `CS(=O)(=O)N[C@H](COCc1ccccc1)C(=O)N[C@@H](Cc1ccccc1)C(=O)C(=O)NCCS(=O)(=O)Nc1ccc(C(F)(F)F)cc1` [Compound 61] gave an IC50 of 0.032 µM. For `CS(=O)(=O)NC(COCc1ccccc1)C(=O)NC(Cc1ccccc1)C(=O)C(=O)NC1CCN(S(=O)(=O)c2ccc(-c3ccccn3)s2)CC1` (mixture of isomers) [Compound 107], the IC50 was 0.023 µM. Compound `CS(=O)(=O)N[C@H](Cc1ccccc1)C(=O)N[C@@H](Cc1ccccc1)C(=O)C(=O)NCCNS(=O)(=O)c1ccc(-c2ccccn2)s1` [Compound 71] has an IC50 of 0.018 µM. For `CCN(CC)Cc1cccc(-c2ccc(S(=O)(=O)NCCNC(=O)C(=O)[C@H](Cc3ccccc3)NC(=O)[C@@H](COCc3ccccc3)NS(C)(=O)=O)s2)c1` [Compound 101], the IC50 was 0.022 µM.

Same assay, conditions: Table 4; 0.1 μM compound; value in brackets marked *
With `CS(=O)(=O)N[C@H](COCc1ccccc1)C(=O)N[C@@H](Cc1ccccc1)C(=O)C(=O)NC1CCC(=O)NC1` (stereo partly drawn) [Compound 64] the “Percent inhibition @ 0.1 μM (Calpain)” value was “(33)* Percent”.

Same assay, conditions: Table 5, achiral P2 mimetic α-ketoamides
Compound `O=C(NCCNS(=O)(=O)c1ccc(-c2ccccn2)s1)C(=O)[C@H](Cc1ccccc1)NC(=O)c1ccccc1` [Compound 117] has an IC50 of 0.8 µM. Work on `CC(C)CCC(=O)N[C@@H](Cc1ccccc1)C(=O)C(=O)NCCNS(=O)(=O)c1ccc(-c2cccc(C#N)c2)s1` [Compound 150] yielded an IC50 of 0.015 µM. `O=C(NCCNS(=O)(=O)c1ccc(-c2ccccn2)s1)C(=O)[C@H](Cc1ccccc1)NC(=O)c1cc(C(F)(F)F)cc(C(F)(F)F)c1` [Compound 126] gave an IC50 of 0.6 µM. For `COc1cccc(OC)c1C(=O)N[C@@H](Cc1ccccc1)C(=O)C(=O)NCCNS(=O)(=O)c1ccc(-c2ccon2)s1` [Compound 138], the IC50 was 4 µM. For `O=C(NCCNS(=O)(=O)c1ccc(-c2ccon2)s1)C(=O)[C@H](Cc1ccccc1)NC(=O)c1c(F)cccc1Cl` [Compound 140], the IC50 was 0.058 µM. With `CC(C)c1ccccc1C(=O)N[C@@H](Cc1ccccc1)C(=O)C(=O)NCCNS(=O)(=O)c1ccc(-c2ccon2)s1` [Compound 139] the IC50 was 0.168 µM. For `N#Cc1cccc(-c2ccc(S(=O)(=O)NCCNC(=O)C(=O)[C@H](Cc3ccccc3)NC(=O)c3c(Cl)cccc3Cl)s2)c1` [Compound 133], the IC50 was 0.011 µM. In the case of `COc1ccc(Cl)c(C(=O)N[C@@H](Cc2ccccc2)C(=O)C(=O)NCCNS(=O)(=O)c2ccc(-c3ccccn3)s2)c1` [Compound 125], the IC50 is reported as 0.065 µM. `N#Cc1cccc(-c2ccc(S(=O)(=O)NCCNC(=O)C(=O)[C@H](Cc3ccccc3)NC(=O)c3c(F)cccc3F)s2)c1` [Compound 135] was tested, and the IC50 was 0.022 µM.
